From ChEMBL document CHEMBL1909046, “DrugMatrix in vitro pharmacology data”

What was measured:
Neutrophil elastase = molecular target: T1, Neutrophil elastase (Homo sapiens, UniProt P08246); assay type: tissue-based;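 further: inhibition of neutrophil elastase enzyme activity, measured with a p-nitroanilide-linked peptide substrate; in other assays of this panel Not Active means under 50% inhibition at 10 µM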
T1 sequence (P08246 whole entry): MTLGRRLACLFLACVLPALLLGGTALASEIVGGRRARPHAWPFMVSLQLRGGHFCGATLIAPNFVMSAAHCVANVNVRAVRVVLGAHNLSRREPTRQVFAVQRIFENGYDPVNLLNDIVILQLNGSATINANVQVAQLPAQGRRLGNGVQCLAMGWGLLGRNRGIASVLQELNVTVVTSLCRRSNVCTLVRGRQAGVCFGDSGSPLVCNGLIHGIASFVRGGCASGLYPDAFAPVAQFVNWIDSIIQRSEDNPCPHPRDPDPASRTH

[1] = DRUGMATRIX: Calcium Channel Type L, Benzothiazepine radioligand binding (ligand: [3H] Diltiazem); assay type: cell membranes, Rattus norvegicus, Wistar, Brain, Membrane; conditions: Not Active = under 50% inhibition at 10 µM
[2] = molecular target: T2, Vasoactive intestinal polypeptide receptor 1 (Homo sapiens, UniProt P32241); assay type: cell membranes, Membrane; conditions: ht-29; further: in other assays of this panel Not Active means under 50% inhibition at 10 µM
T2 sequence (P32241 whole entry): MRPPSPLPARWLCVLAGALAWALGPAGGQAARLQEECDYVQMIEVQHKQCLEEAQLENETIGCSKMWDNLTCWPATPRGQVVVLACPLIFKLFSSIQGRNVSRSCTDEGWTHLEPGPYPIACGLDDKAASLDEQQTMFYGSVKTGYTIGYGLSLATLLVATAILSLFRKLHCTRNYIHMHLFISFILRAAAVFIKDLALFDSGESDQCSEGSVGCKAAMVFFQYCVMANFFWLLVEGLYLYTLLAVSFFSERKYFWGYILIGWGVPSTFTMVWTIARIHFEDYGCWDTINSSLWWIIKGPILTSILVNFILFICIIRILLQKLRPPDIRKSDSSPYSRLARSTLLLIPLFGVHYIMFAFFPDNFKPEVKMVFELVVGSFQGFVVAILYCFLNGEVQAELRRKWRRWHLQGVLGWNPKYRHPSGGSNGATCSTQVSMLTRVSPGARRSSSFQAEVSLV

[3] = molecular target: Protein phosphatase 3 catalytic subunit alpha (Homo sapiens, UniProt Q08209); design: species or system Escherichia coli;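 further: inhibition of calcineurin (PP2B) enzyme activity, measured with DiFMUP as the substrate; in other assays of this panel Not Active means under 50% inhibition at 10 µM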
[4] = DRUGMATRIX: Serotonin (5-Hydroxytryptamine) 5-HT3 radioligand binding (ligand: [3H] GR-65630); assay type: cell membranes, Membrane; conditions: hek293; Not Active = under 50% inhibition at 10 µM
Nitric oxide synthase 1 = Nitric oxide synthase 1 (Rattus norvegicus, UniProt P29476); assay type: tissue-based, Cerebellum; further: in other assays of this panel Not Active means under 50% inhibition at 10 µM
Nitric oxide synthase 1, sequence (P29476 whole entry): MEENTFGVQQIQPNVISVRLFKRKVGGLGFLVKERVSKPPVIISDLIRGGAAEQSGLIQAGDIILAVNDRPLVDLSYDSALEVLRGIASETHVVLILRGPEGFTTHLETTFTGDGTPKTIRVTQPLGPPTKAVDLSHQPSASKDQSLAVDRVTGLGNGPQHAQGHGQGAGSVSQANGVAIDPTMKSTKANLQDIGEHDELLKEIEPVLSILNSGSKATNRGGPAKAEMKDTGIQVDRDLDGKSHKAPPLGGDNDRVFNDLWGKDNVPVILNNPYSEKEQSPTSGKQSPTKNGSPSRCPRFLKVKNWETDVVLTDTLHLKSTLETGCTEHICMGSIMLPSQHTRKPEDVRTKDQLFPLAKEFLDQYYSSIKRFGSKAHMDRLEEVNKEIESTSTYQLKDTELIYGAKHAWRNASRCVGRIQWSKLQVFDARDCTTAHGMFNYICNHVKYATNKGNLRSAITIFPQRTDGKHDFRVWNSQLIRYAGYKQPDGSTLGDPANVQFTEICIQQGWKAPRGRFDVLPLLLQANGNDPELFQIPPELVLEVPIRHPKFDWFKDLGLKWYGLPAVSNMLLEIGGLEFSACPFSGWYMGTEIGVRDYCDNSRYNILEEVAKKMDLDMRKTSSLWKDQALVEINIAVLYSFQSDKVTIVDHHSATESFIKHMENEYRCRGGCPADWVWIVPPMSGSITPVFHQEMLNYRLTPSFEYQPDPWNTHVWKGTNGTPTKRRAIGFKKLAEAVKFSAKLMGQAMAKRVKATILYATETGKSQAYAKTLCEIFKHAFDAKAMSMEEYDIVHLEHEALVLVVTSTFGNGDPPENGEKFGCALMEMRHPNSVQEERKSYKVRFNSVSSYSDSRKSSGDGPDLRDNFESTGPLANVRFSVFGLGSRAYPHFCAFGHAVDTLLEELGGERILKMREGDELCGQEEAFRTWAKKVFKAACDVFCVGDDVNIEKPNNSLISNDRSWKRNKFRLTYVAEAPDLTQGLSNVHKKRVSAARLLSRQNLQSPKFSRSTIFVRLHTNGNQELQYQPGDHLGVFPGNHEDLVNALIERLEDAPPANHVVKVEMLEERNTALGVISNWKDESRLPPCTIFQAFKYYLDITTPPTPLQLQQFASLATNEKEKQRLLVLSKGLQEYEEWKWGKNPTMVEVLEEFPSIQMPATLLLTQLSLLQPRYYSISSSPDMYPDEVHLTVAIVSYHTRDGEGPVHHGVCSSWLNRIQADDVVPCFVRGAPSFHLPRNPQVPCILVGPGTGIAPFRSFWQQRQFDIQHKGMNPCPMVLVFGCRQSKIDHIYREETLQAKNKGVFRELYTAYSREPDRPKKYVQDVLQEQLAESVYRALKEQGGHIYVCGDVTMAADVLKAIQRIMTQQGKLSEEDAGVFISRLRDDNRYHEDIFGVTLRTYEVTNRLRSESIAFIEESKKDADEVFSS

[5] = molecular target: 5-hydroxytryptamine receptor 6 (Homo sapiens, UniProt P50406); assay type: cell membranes, HeLa, Membrane; conditions: hela; further: in other assays of this panel Not Active means under 50% inhibition at 10 µM
5-hydroxytryptamine receptor 6, sequence (P50406 whole entry): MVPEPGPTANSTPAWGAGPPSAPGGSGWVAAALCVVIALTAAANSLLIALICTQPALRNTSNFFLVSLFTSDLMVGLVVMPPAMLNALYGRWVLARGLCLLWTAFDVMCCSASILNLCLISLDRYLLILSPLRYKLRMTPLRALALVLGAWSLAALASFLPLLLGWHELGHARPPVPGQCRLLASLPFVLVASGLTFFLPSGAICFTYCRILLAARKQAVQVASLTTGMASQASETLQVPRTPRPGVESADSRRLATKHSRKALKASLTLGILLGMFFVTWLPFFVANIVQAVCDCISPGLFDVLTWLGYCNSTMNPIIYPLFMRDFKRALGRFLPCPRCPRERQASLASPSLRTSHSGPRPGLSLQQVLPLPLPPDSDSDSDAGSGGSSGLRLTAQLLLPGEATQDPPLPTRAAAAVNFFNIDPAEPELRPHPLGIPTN

NC[C@H]1CC[C@H](C(=O)O)CC1 [TRANEXAMIC ACID]
Not Active: IC50 (Neutrophil elastase) | IC50 [1] | Ki [1] | IC50 [2] | IC50 [3] | IC50 [4] | Ki [4] | IC50 (Nitric oxide synthase 1) | IC50 [5]

CC1(C)O[C@@H]2C[C@H]3[C@@H]4CCC5=CC(=O)C=C[C@]5(C)[C@@]4(F)[C@@H](O)C[C@]3(C)[C@]2(C(=O)CO)O1 [TRIAMCINOLONE ACETONIDE]
Not Active: IC50 (Neutrophil elastase) | IC50 [1] | Ki [1] | IC50 [2] | IC50 [3] | IC50 [4] | Ki [4] | IC50 (Nitric oxide synthase 1) | IC50 [5]

NS(=O)(=O)c1cc2c(cc1Cl)NC(C(Cl)Cl)NS2(=O)=O (stereo unspecified) [TRICHLORMETHIAZIDE]
Not Active: IC50 (Neutrophil elastase) | IC50 [1] | Ki [1] | IC50 [2] | IC50 [3] | IC50 [4] | Ki [4] | IC50 (Nitric oxide synthase 1) | IC50 [5]

Cc1c(C)c2c(c(C)c1O)CCC(C)(COc1ccc(CC3SC(=O)NC3=O)cc1)O2 (stereo unspecified) [TROGLITAZONE]
Not Active: IC50 (Neutrophil elastase) | IC50 [1] | Ki [1] | IC50 [2] | IC50 [3] | IC50 [4] | Ki [4] | IC50 (Nitric oxide synthase 1) | IC50 [5]

N[C@@H]1[C@H]2CN(c3nc4c(cc3F)c(=O)c(C(=O)O)cn4-c3ccc(F)cc3F)C[C@@H]12 [TROVAFLOXACIN]
Not Active: IC50 (Neutrophil elastase) | IC50 [1] | Ki [1] | IC50 [2] | IC50 [3] | IC50 [4] | Ki [4] | IC50 (Nitric oxide synthase 1) | IC50 [5]

N#CC(C#N)=Cc1ccc(O)c(O)c1 [TYRPHOSTIN 23]
Not Active: IC50 (Neutrophil elastase) | IC50 [1] | Ki [1] | IC50 [2] | IC50 [3] | IC50 [4] | Ki [4] | IC50 (Nitric oxide synthase 1) | IC50 [5]

CC[C@]1(O)C[C@H]2CN(CCc3c([nH]c4ccccc34)[C@@](C(=O)OC)(c3cc4c(cc3OC)N(C=O)[C@H]3[C@@](O)(C(=O)OC)[C@H](OC(C)=O)[C@]5(CC)C=CCN6CC[C@]43[C@@H]65)C2)C1 [VINCRISTINE]
Not Active: IC50 (Neutrophil elastase) | IC50 [1] | Ki [1] | IC50 [2] | IC50 [3] | IC50 [4] | Ki [4] | IC50 (Nitric oxide synthase 1) | IC50 [5]

CCCOc1ccccc1-c1nc2nn[nH]c2c(=O)[nH]1 [ZAPRINAST]
Not Active: IC50 (Neutrophil elastase) | IC50 [1] | Ki [1] | IC50 [2] | IC50 [3] | IC50 [4] | Ki [4] | IC50 (Nitric oxide synthase 1) | IC50 [5]

SODIUM NITROPRUSSIDE
Not Active: IC50 (Neutrophil elastase) | Ki (Neutrophil elastase) | IC50 [1] | Ki [1] | IC50 [2] | Ki [2] | IC50 [3] | Ki [3] | IC50 [4] | Ki [4] | IC50 (Nitric oxide synthase 1) | Ki (Nitric oxide synthase 1) | IC50 [5] | Ki [5]
